# Reference: patent publication EP0877740B1, “THIOL DERIVATIVES WITH METALLOPEPTIDASE INHIBITORY ACTIVITY” (ZAMBON GROUP S.p.A., priority 1995, dated 1997)
# Where two headings read alike, the source gives them in different places.
# Target: T1, ACE (Rattus norvegicus, UniProt P47820)
# T1 construct: After the removal of the lungs from SHR, the lung tissue was homogenized; from tissue; host or cells: lung homogenate of spontaneously hypertensive rats (SHR)
# T1 sequence (P47820 36-1313): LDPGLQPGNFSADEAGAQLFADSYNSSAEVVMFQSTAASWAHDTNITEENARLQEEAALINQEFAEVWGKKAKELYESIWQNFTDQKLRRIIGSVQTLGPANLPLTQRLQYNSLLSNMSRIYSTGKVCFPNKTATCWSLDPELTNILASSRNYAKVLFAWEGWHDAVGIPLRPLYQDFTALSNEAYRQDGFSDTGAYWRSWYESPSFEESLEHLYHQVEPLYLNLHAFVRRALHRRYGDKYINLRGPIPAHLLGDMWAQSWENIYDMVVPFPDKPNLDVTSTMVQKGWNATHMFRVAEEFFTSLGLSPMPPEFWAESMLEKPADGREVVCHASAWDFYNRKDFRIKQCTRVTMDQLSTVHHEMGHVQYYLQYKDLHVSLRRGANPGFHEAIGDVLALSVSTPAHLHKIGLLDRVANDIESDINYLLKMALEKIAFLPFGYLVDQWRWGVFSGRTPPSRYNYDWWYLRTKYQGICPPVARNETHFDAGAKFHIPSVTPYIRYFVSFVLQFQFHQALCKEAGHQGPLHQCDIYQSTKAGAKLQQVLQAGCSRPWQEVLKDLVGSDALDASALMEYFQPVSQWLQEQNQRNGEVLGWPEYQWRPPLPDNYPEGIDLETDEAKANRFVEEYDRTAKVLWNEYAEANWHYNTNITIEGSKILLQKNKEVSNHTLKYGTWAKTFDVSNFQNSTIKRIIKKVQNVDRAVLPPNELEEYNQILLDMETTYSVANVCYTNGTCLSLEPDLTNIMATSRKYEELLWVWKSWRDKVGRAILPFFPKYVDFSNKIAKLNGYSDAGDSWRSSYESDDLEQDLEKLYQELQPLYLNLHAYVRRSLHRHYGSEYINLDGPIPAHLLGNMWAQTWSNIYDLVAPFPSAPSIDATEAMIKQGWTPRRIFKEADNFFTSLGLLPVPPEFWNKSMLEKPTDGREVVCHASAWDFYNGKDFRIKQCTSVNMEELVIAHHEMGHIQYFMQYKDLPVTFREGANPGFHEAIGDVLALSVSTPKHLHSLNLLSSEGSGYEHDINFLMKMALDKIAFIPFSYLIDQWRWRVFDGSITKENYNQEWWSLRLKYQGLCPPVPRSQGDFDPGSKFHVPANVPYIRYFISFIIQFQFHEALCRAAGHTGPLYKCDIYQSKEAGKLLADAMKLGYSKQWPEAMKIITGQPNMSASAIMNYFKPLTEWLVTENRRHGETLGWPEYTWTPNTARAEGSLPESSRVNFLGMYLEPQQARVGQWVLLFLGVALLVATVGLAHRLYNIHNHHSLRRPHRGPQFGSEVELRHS
# Assay: Ex vivo ACE-inhibitory activity in lung homogenates of treated SHR (radiometric, [3H]Hyp-Gly-Gly)
# Design: species or system spontaneously hypertensive rats (SHR)
# Conditions: SHR lungs; for inhibition at 30 µmol/kg: oral 30 µmoles/kg
# Method: The ex-vivo ACE/NEP-inhibitory activity, in particular, was determined by evaluating the enzymatic activity in tissue homogenates (lung and kidney for ACE and NEP activity, respectively) from spontaneously hypertensive rats (SHR) treated with the tested compounds by intravenous or oral route.
# The ex vivo ACE-inhibitory activity was evaluated by using a radiometric assay method, as reported in the literature by J. W. Ryan et al. in Biochem. J. (1977), 167, 501-504.
# The inhibitory activity of the compounds of formula I was evaluated in lungs of spontaneously hypertensive rats (SHR), 5 minutes after i.v. injection (0.6 and 21 µmoles/kg) and 30 minutes, 60 minutes and 4 hours after oral administration (30 µmoles/kg) of the tested compounds.
# After the removal of the lungs from SHR, the lung tissue was homogenized and incubated for 2 hours at 37°C in the presence of [^3H]Hyp-Gly-Gly, as a substrate.
# The reaction was stopped by adding hydrochloric acid.
# The released radiolabelled hyppuric acid was extracted with ethyl acetate and counted by liquid scintillation spectrometry, according to conventional methods.
# The ACE-inhibitory activity of the tested compounds was expressed as percentage of ACE-inhibition in SHR lungs.
compound,measurement,setting,value
"O=C(N[C@@H](Cc1ccc(-c2nccs2)cc1)C(=O)O)[C@@H](CS)Cc1ccccc1 [Compound 16, N-[(2S)-3-mercapto-2-phenylmethylpropionyl]-4-(2-thiazolyl)-L-phenylalanine]",inhibition at 30 µmol/kg,"30 minutes after administration, read-out: ACE-inhibition (lungs) 30 minutes",60%
same,inhibition at 30 µmol/kg,"60 minutes after administration, read-out: ACE-inhibition (lungs) 60 minutes",36%
same,inhibition at 30 µmol/kg,"4 hours after administration, read-out: ACE-inhibition (lungs) 4 hours",45%
same,inhibition at 0.6 µmol/kg,"iv, i.v. 0.6 µmoles/kg, 5 minutes after injection",15%
same,inhibition at 21 µmol/kg,"iv, i.v. 21 µmoles/kg, 5 minutes after injection",72%
